{"source": "patent US7235258B1", "about": "“Sustained-release formulations for treating CNS-mediated disorders” (NPS Pharmaceuticals, Inc., priority 1999, dated 2007)", "key": {"[1]": {"assay": "Safety and tolerability in the ascending single oral dose study", "assay_type": "in vivo, human", "description": "(§1) Isovaleramide (NPS 1776) was orally administered in a double-blind, placebo-controlled, ascending single dose study conducted in two groups of healthy young male Caucasian subjects and one group of healthy young female Caucasian subjects to investigate the safety, tolerability, pharmacodynamics and pharmacokinetics of the drug. Various amounts of the drug were dissolved in 250 mL of a flavored soft drink (powdered soft drink diluted in mineral water) and administered as an oral solution.\nThe most common adverse events were polyuria and headache. There were no dose-related trends in the incidence or severity of adverse events, or any difference in the incidence or severity of adverse events reported. Similar results were obtained in a 1200 mg dose level female group administered the drug for gender comparison."}, "[2]": {"assay": "Ascending single oral dose pharmacokinetic study of isovaleramide (oral solution) in healthy subjects", "assay_type": "in vivo, human", "settings": "for half-life / Cmax / CL/F: human; for CL/F: arithmetic mean", "description": "as §1\nIsovaleramide administered orally in the absence of a sustained-release formulation was rapidly absorbed and rapidly eliminated in human subjects (Table 1). Systemic exposure to the drug increased with increasing oral doses from 100 to 1600 mg in male subjects."}, "[3]": {"assay": "Water solubility of the drug (statement)", "assay_type": "physicochemical"}}, "note": "Where two headings read alike, the source gives them in different places."}
{"smiles": "CC(C)CC(N)=O", "note": "[Isovaleramide]", "values": [{"measurement": "changes in vital signs, 12-lead ECG, clinical laboratory assessments or physical examination", "setting": "[1]; all dose levels", "result": "no clinically significant drug-or dose-related changes"}, {"measurement": "tolerability", "setting": "[1]; oral 100 to 1600 mg, healthy male subjects", "result": "well tolerated"}, {"measurement": "severity of drug-related adverse events", "setting": "[1]; oral 100 to 1600 mg, few events, most common polyuria and headache", "result": "all were mild in severity"}, {"measurement": "time at which blood level falls below the effective concentration", "setting": "[2]; 1200 mg dose, assumed effective target concentration about 10 μg/mL", "result": "about 5 hours"}, {"measurement": "half-life", "setting": "[2]; female, plasma, females, oral, 1200 mg, read-out: t½ (converted)", "result": 1.89, "unit": "h"}, {"measurement": "Cmax", "setting": "[2]; blood, oral, 1200 mg, read-out: initial maximum blood concentration (Cmax)", "result": "~27000", "unit": "ng/mL"}, {"measurement": "half-life", "setting": "[2]; plasma, humans, oral, no sustained-release formulation, doses 100 to 1600 mg, read-out: half-life (converted)", "result": "~2.5", "unit": "h"}, {"measurement": "CL/F", "setting": "[2]; plasma, male humans, oral, 100 mg", "result": 3.83, "unit": "mL/min/kg"}, {"measurement": "Cmax", "setting": "[2]; plasma, male humans, oral, 100 mg, geometric mean, read-out: Cmax", "result": 1510, "unit": "ng/mL"}, {"measurement": "half-life", "setting": "[2]; plasma, male humans, oral, 100 mg, harmonic mean, read-out: t1/2 (converted)", "result": 2.7, "unit": "h"}, {"measurement": "CL/F", "setting": "[2]; plasma, male humans, oral, 200 mg", "result": 3.08, "unit": "mL/min/kg"}, {"measurement": "Cmax", "setting": "[2]; plasma, male humans, oral, 200 mg, geometric mean, read-out: Cmax", "result": 3320, "unit": "ng/mL"}, {"measurement": "half-life", "setting": "[2]; plasma, male humans, oral, 200 mg, harmonic mean, read-out: t1/2 (converted)", "result": 2.61, "unit": "h"}, {"measurement": "CL/F", "setting": "[2]; plasma, male humans, oral, 400 mg", "result": 3.13, "unit": "mL/min/kg"}, {"measurement": "Cmax", "setting": "[2]; plasma, male humans, oral, 400 mg, geometric mean, read-out: Cmax", "result": 6840, "unit": "ng/mL"}, {"measurement": "half-life", "setting": "[2]; plasma, male humans, oral, 400 mg, harmonic mean, read-out: t1/2 (converted)", "result": 2.5, "unit": "h"}, {"measurement": "CL/F", "setting": "[2]; plasma, male humans, oral, 800 mg", "result": 2.73, "unit": "mL/min/kg"}, {"measurement": "Cmax", "setting": "[2]; plasma, male humans, oral, 800 mg, geometric mean, read-out: Cmax", "result": 16400, "unit": "ng/mL"}, {"measurement": "half-life", "setting": "[2]; plasma, male humans, oral, 800 mg, harmonic mean, read-out: t1/2 (converted)", "result": 2.35, "unit": "h"}, {"measurement": "CL/F", "setting": "[2]; plasma, male humans, oral, 1200 mg", "result": 2.47, "unit": "mL/min/kg"}, {"measurement": "Cmax", "setting": "[2]; plasma, male humans, oral, 1200 mg, geometric mean, read-out: Cmax", "result": 27900, "unit": "ng/mL"}, {"measurement": "half-life", "setting": "[2]; plasma, male humans, oral, 1200 mg, harmonic mean, read-out: t1/2 (converted)", "result": 2.43, "unit": "h"}, {"measurement": "CL/F", "setting": "[2]; plasma, male humans, oral, 1600 mg", "result": 2.17, "unit": "mL/min/kg"}, {"measurement": "Cmax", "setting": "[2]; plasma, male humans, oral, 1600 mg, geometric mean, read-out: Cmax", "result": 39300, "unit": "ng/mL"}, {"measurement": "half-life", "setting": "[2]; plasma, male humans, oral, 1600 mg, harmonic mean, read-out: t1/2 (converted)", "result": 2.65, "unit": "h"}, {"measurement": "time to maximum drug concentration", "setting": "[2]; humans, oral, all doses", "result": "less than one hour"}, {"measurement": "time to maximum drug concentration, typical", "setting": "[2]; humans, oral, all doses", "result": "about 30 minutes"}, {"measurement": "increase in Cmax and AUC relative to increase in dose level", "setting": "[2]; male subjects, oral, 100 to 1600 mg", "result": "slightly greater than proportional"}, {"measurement": "change in drug concentration in the blood over a 12-hour period", "setting": "[2]; single dose, for a 2.5-hour half-life", "result": "about 10 fold"}, {"measurement": "water solubility", "setting": "[3]", "result": "very water soluble"}]}
